In the experiment the target is FcsSBP (Fucose Solute Binding Protein). In words: isothermal titration calorimetry. On the set-up: species or system Streptococcus pneumoniae. The settings on record: 50 mM Tris HCl pH 7.5, 25 °C, one-site model. (In general: Isothermal titration calorimetry measures the heat released or taken up as one component is titrated into another.)

Structures are written as SMILES.

These results are taken from paper PMC2911475 (Journal of molecular biology, 2009).

As for `CC(=O)N[C@H]1[C@@H](O[C@H]2[C@@H](O)[C@@H](CO)OC(O)[C@@H]2O[C@@H]2O[C@@H](C)[C@@H](O)[C@@H](O)[C@@H]2O)O[C@H](CO)[C@H](O)[C@@H]1O` (some centres unmarked) [A-trisaccharide, GalNAcα1–3(Fucα1–2)Gal], the Ka (crystal structure of SeMet protein) is 1.01 (±0.16) × 10^6. As to `C[C@@H]1O[C@@H](O[C@H]2C(O)O[C@H](CO)[C@H](O)[C@@H]2O[C@H]2O[C@H](CO)[C@H](O)[C@H](O)[C@H]2O)[C@@H](O)[C@H](O)[C@@H]1O` (some centres unmarked) [B-trisaccharide, Galα1–3(Fucα1–2)Gal], the Ka is 1.15 (±0.27) × 10^6.
